pIC50: −log10 of the molar value.
Assays:
RAW264.7 = assay: Inhibition of LPS-induced NF-kappaB transcriptional activity in mouse RAW264.7 cells at 100 uM; assay type: cell-based
NCI-H23 = assay: Cytotoxicity against human NCI-H23 cells; assay type: functional
PC-3 = assay: Cytotoxicity against human PC3 cells; assay type: functional
[1] = Inhibition of LPS-induced NF-kappaB transcriptional activity in mouse RAW264.7 cells; assay type: cell-based
ACHN = assay: Cytotoxicity against human ACHN cells; assay type: functional
HCT-15 = assay: Cytotoxicity against human HCT15 cells; assay type: functional
MDA-MB-231 = assay: Cytotoxicity against human MDA-MB-231 cells; assay type: functional
NUGC-3 = assay: Cytotoxicity against human NUGC3 cells; assay type: functional

Structure (SMILES) | inhibition (RAW264.7) | GI50 (NCI-H23) | GI50 (PC-3) | pIC50 [1] | GI50 (ACHN) | GI50 (HCT-15) | GI50 (MDA-MB-231) | GI50 (NUGC-3)
O=C(Nc1cccc(C(F)(F)F)c1)C1Cc2ccccc2N1 (stereo not given) | 99% | 4.96 µM | 4.24 µM | 4.34 |  |  |  | 
O=C(Nc1cccc([N+](=O)[O-])c1)C1Cc2ccccc2N1 (stereo not given) | 49% |  |  | < 4.00 |  |  |  | 
Cc1cccc(NC(=O)C2Cc3ccccc3N2C(=O)OC(C)(C)C)c1 (stereo not given) | 87% |  |  |  |  |  |  | 
O=C(Nc1ccccc1C(F)(F)F)C1Cc2ccccc2N1 (stereo not given) | 61% |  |  | 4.10 |  |  |  | 
O=C(Nc1ccccc1O)C1Cc2ccccc2N1 (stereo not given) | 37% |  |  | < 4.00 |  |  |  | 
Cc1ccc(S(=O)(=O)N2c3ccccc3CC2C(=O)Nc2ccc(C(F)(F)F)cc2)cc1 (stereo not given) |  | 8.97 µM | 6.68 µM | < 4.00 | > 10 µM | > 10 µM | > 10 µM | > 10 µM
Cc1ccccc1NC(=O)C1Cc2ccccc2N1C(=O)OC(C)(C)C (stereo not given) | 68% |  |  | 4.20 |  |  |  | 
CC(C)(C)OC(=O)N1c2ccccc2CC1C(=O)Nc1ccc(C(F)(F)F)cc1 (stereo not given) | > 100% | 3.21 µM | 2.02 µM | 4.92 |  |  |  | 
O=C(Nc1ccccc1)C1Cc2ccccc2N1 (stereo not given) | 65% |  |  | 4.15 |  |  |  | 
O=C(Nc1ccccc1Cl)C1Cc2ccccc2N1 (stereo not given) | 62% |  |  | 4.16 |  |  |  | 
O=C(Nc1cccc(Cl)c1)C1Cc2ccccc2N1 (stereo not given) | 63% |  |  |  |  |  |  | 
O=C(Nc1ccccc1[N+](=O)[O-])C1Cc2ccccc2N1 (stereo not given) | 41% |  |  | < 4.00 |  |  |  | 
COc1ccc(OC)c(NC(=O)C2Cc3ccccc3N2C(=O)OC(C)(C)C)c1 (stereo not given) | 76% |  |  |  |  |  |  | 
CCCCCCCCC(=O)N1c2ccccc2CC1C(=O)Nc1cc(Cl)cc(Cl)c1 (stereo not given) |  | 1.28 µM | 1.61 µM | 4.90 | 1.89 µM | 1.73 µM | 3.57 µM | 1.52 µM
COc1ccc(OC)c(NC(=O)C2Cc3ccccc3N2)c1 (stereo not given) | 47% |  |  | < 4.00 |  |  |  | 
O=C(Nc1cc(Cl)ccc1Cl)C1Cc2ccccc2N1 (stereo not given) | 34% |  |  | < 4.00 |  |  |  | 
CC(C)(C)OC(=O)N1c2ccccc2CC1C(=O)Nc1ccc(Cl)c(Cl)c1 (stereo not given) | 97% | 3.19 µM | 4.66 µM | 4.90 |  |  |  | 
CC(C)(C)OC(=O)N1c2ccccc2CC1C(=O)Nc1cccc([N+](=O)[O-])c1 (stereo not given) | 94% |  |  | 4.85 |  |  |  | 
CC(C)(C)OC(=O)N1c2ccccc2CC1C(=O)Nc1cccc(Cl)c1 (stereo not given) | > 100% | 3.23 µM |  |  |  |  |  | 
COc1cccc(NC(=O)C2Cc3ccccc3N2)c1 (stereo not given) | 64% |  |  |  |  |  |  | 
O=C(Nc1ccc(C(F)(F)F)cc1)C1Cc2ccccc2N1 (stereo not given) | 56% |  |  | 4.10 |  |  |  | 
COc1ccc(NC(=O)C2Cc3ccccc3N2)cc1OC (stereo not given) | 15% |  |  | < 4.00 |  |  |  | 
CC(C)(C)OC(=O)N1c2ccccc2CC1C(=O)Nc1cc(Cl)ccc1Cl (stereo not given) | 71% |  |  | 4.34 |  |  |  | 
CC(C)(C)OC(=O)N1c2ccccc2CC1C(=O)Nc1cccc(O)c1 (stereo not given) | 75% |  |  | 4.23 |  |  |  | 

Structure (SMILES) | inhibition (RAW264.7) | GI50 (NCI-H23) | GI50 (PC-3) | pIC50 [1] | GI50 (ACHN) | GI50 (HCT-15) | GI50 (MDA-MB-231) | GI50 (NUGC-3)
CC(NC(=O)OC(C)(C)C)C(=O)N1c2ccccc2CC1C(=O)Nc1cc(Cl)cc(Cl)c1 (stereo not given) |  | 6.71 µM | 4.43 µM | 5.23 | 5.04 µM | 4.33 µM |  | 6.21 µM
COc1cccc2c1C(=O)c1c(O)c3c(c(O)c1C2=O)C[C@@](O)(C(=O)CO)C[C@@H]3O[C@H]1C[C@H](N)[C@H](O)[C@H](C)O1 [DOXORUBICIN] |  | 0.178 µM | 0.317 µM |  | 0.182 µM | 2.18 µM | 0.194 µM | 0.202 µM
CC(C)(C)OC(=O)N1c2ccccc2CC1C(=O)Nc1cc(C(F)(F)F)cc(C(F)(F)F)c1 (stereo not given) |  | 1.52 µM | 0.838 µM | 4.83 |  |  |  | 
CC(C)(C)OC(=O)N1c2ccccc2CC1C(=O)Nc1cccc(C(F)(F)F)c1 (stereo not given) | > 100% | 6.34 µM | 3.34 µM |  |  |  |  | 
Cc1cc(C)cc(NC(=O)C2Cc3ccccc3N2C(=O)OC(C)(C)C)c1 (stereo not given) | 78% |  |  | 4.78 |  |  |  | 
CC(C)(C)OC(=O)N1c2ccccc2CC1C(=O)Nc1ccccc1 (stereo not given) | 30% |  |  | < 4.00 |  |  |  | 
O=C(Nc1cc(Cl)cc(Cl)c1)C1Cc2ccccc2N1 (stereo not given) | 98% | 12.3 µM | 2.53 µM |  |  |  |  | 
O=C(Nc1cccc(O)c1)C1Cc2ccccc2N1 (stereo not given) | 30% |  |  | < 4.00 |  |  |  | 
O=C(Nc1cc(Cl)cc(Cl)c1)C1Cc2ccccc2N1C(=O)c1ccccc1 (stereo not given) |  | 4.28 µM | 6.84 µM | 4.33 | 8.26 µM |  | 6.42 µM | 7.97 µM
O=C(Nc1cc(C(F)(F)F)cc(C(F)(F)F)c1)C1Cc2ccccc2N1 (stereo not given) | 96% | 0.648 µM | 0.794 µM | 4.92 |  |  |  | 
O=C(Nc1ccc(Cl)cc1)C1Cc2ccccc2N1 (stereo not given) | 62% |  |  | 4.15 |  |  |  | 
CC(C)(C)OC(=O)N1c2ccccc2CC1C(=O)Nc1cc(Cl)cc(Cl)c1 (stereo not given) |  | 3.39 µM | 1.68 µM | 5.00 |  |  |  | 
CC(C)(C)OC(=O)N1c2ccccc2CC1C(=O)Nc1ccc(Cl)cc1 (stereo not given) | 31% |  |  | < 4.00 |  |  |  | 
Cc1ccc(S(=O)(=O)N2c3ccccc3CC2C(=O)Nc2cc(Cl)cc(Cl)c2)cc1 (stereo not given) |  | 7.53 µM | > 10 µM | < 4.00 | > 10 µM | > 10 µM | > 10 µM | > 10 µM
O=C(Nc1ccc([N+](=O)[O-])cc1)C1Cc2ccccc2N1 (stereo not given) | 41% |  |  | < 4.00 |  |  |  | 
CC(C)(C)OC(=O)N1c2ccccc2CC1C(=O)Nc1ccccc1O (stereo not given) | 93% |  |  |  |  |  |  | 
COc1ccccc1NC(=O)C1Cc2ccccc2N1 (stereo not given) | 60% |  |  | 4.10 |  |  |  | 
COc1ccccc1NC(=O)C1Cc2ccccc2N1C(=O)OC(C)(C)C (stereo not given) | 76% |  |  |  |  |  |  | 
Cc1ccc(NC(=O)C2Cc3ccccc3N2C(=O)OC(C)(C)C)cc1C (stereo not given) | 64% |  |  |  |  |  |  | 
COc1ccc(NC(=O)C2Cc3ccccc3N2C(=O)OC(C)(C)C)cc1 (stereo not given) | 29% |  |  | < 4.00 |  |  |  | 
Cc1ccc(NC(=O)C2Cc3ccccc3N2)cc1C (stereo not given) | 87% |  |  | 4.36 |  |  |  | 
CC(C)(C)C(=O)N1c2ccccc2CC1C(=O)Nc1cc(Cl)cc(Cl)c1 (stereo not given) |  | 3.46 µM | 4.18 µM | 4.84 | 3.68 µM | 3.81 µM | 4.97 µM | 3.35 µM
O=C(Nc1ccc(Cl)c(Cl)c1)C1Cc2ccccc2N1 (stereo not given) | 72% | 11.6 µM |  |  |  |  |  | 
COc1ccc(NC(=O)C2Cc3ccccc3N2)cc1 (stereo not given) | 37% |  |  | < 4.00 |  |  |  | 

Structure (SMILES) | inhibition (RAW264.7) | GI50 (NCI-H23) | GI50 (PC-3) | pIC50 [1] | GI50 (ACHN) | GI50 (HCT-15) | GI50 (MDA-MB-231) | GI50 (NUGC-3)
Cc1ccccc1NC(=O)C1Cc2ccccc2N1 (stereo not given) | 39% |  |  | < 4.00 |  |  |  | 
Cc1cc(C)cc(NC(=O)C2Cc3ccccc3N2)c1 (stereo not given) | 56% |  |  | 4.07 |  |  |  | 
CC(=O)N1c2ccccc2CC1C(=O)Nc1cc(Cl)cc(Cl)c1 (stereo not given) |  | 7.68 µM | 6.37 µM | 4.47 | > 10 µM | 8.68 µM | > 10 µM | 7.86 µM
CC(C)(C)C(=O)N1c2ccccc2CC1C(=O)Nc1ccc(C(F)(F)F)cc1 (stereo not given) |  | 3.65 µM | 3.89 µM | 4.90 | 5.63 µM | 5.54 µM | 7.31 µM | 6.58 µM
CC(C)(C)OC(=O)N1c2ccccc2CC1C(=O)Nc1ccccc1[N+](=O)[O-] (stereo not given) | 63% |  |  |  |  |  |  | 
COc1cccc(NC(=O)C2Cc3ccccc3N2C(=O)OC(C)(C)C)c1 (stereo not given) | 38% |  |  | < 4.00 |  |  |  | 
CC(C)(C)OC(=O)N1c2ccccc2CC1C(=O)Nc1ccc([N+](=O)[O-])cc1 (stereo not given) | > 100% | 2.52 µM | 2.79 µM |  |  |  |  | 
Cc1ccc(NC(=O)C2Cc3ccccc3N2C(=O)OC(C)(C)C)cc1 (stereo not given) | 37% |  |  | < 4.00 |  |  |  | 
COc1cc2c(cc1O)CCC(C(=O)Nc1ccccc1)O2 (stereo not given) | 90% | 9.32 µM |  | 4.40 |  |  |  | 
COc1cc(NC(=O)C2Cc3ccccc3N2)cc(OC)c1 (stereo not given) | 41% |  |  | < 4.00 |  |  |  | 
CC(=O)N1c2ccccc2CC1C(=O)Nc1ccc(C(F)(F)F)cc1 (stereo not given) |  | > 10 µM | > 10 µM | < 4.00 | > 10 µM | > 10 µM | > 10 µM | > 10 µM
COc1ccc(NC(=O)C2Cc3ccccc3N2C(=O)OC(C)(C)C)cc1OC (stereo not given) | 65% |  |  | 4.28 |  |  |  | 
Cc1ccc(NC(=O)C2Cc3ccccc3N2)cc1 (stereo not given) | 41% |  |  | < 4.00 |  |  |  | 
CC(C)(C)OC(=O)N1c2ccccc2CC1C(=O)Nc1ccccc1Cl (stereo not given) | 50% |  |  |  |  |  |  | 
O=C(Nc1ccc(O)cc1)C1Cc2ccccc2N1 (stereo not given) | 63% |  |  | 4.18 |  |  |  | 
Cc1ccc(C)c(NC(=O)C2Cc3ccccc3N2)c1 (stereo not given) | 47% |  |  | < 4.00 |  |  |  | 
COc1cc(NC(=O)C2Cc3ccccc3N2C(=O)OC(C)(C)C)cc(OC)c1 (stereo not given) | 88% |  |  |  |  |  |  | 
CC(C)(C)OC(=O)N1c2ccccc2CC1C(=O)Nc1ccc(O)cc1 (stereo not given) | 42% |  |  | < 4.00 |  |  |  | 
Cc1ccc(C)c(NC(=O)C2Cc3ccccc3N2C(=O)OC(C)(C)C)c1 (stereo not given) | 75% |  |  | 4.30 |  |  |  | 
CC(C)(C)OC(=O)N1c2ccccc2CC1C(=O)Nc1ccccc1C(F)(F)F (stereo not given) | 38% |  |  | < 4.00 |  |  |  | 
CCCCCCCCC(=O)N1c2ccccc2CC1C(=O)Nc1ccc(C(F)(F)F)cc1 (stereo not given) |  | 1.62 µM | 1.86 µM | < 4.00 | 3.78 µM | 2.07 µM | > 10 µM | 3.45 µM
Cc1cccc(NC(=O)C2Cc3ccccc3N2)c1 (stereo not given) | 29% |  |  | < 4.00 |  |  |  | 
O=C(Nc1ccc(C(F)(F)F)cc1)C1Cc2ccccc2N1C(=O)c1ccccc1 (stereo not given) |  | 4.58 µM |  | 4.87 |  | 5.49 µM |  | 8.72 µM

Source: ChEMBL document CHEMBL1208701, “Structure-activity relationship of indoline-2-carboxylic acid N-(substituted)phenylamide derivatives” (Bioorg Med Chem Lett, 2010)
